Test results taken from ChEMBL document CHEMBL5042495, “Lead Optimization of Influenza Virus RNA Polymerase Inhibitors Targeting PA-PB1 Interaction” (J Med Chem, 2022).
Active and inactive are the calls of the source. The rule behind the calls is not given here.

How the values were obtained:
HEK293T [1] = experiment: Inhibition of Influenza A virus RNA dependent RNA polymerase activity in HEK293T cells co-transfected with pPoll/NP(0)GFP(0) at 10 to 40 uM after 2 hrs post-transfection followed by compound addition incubated for 22 hrs by fluorescence microscopic analysis; type: cell-based; details: dose 10-40 µM
HEK293T [2] = experiment: Inhibition of Influenza A virus RNA dependent RNA polymerase activity in HEK293T cells co-transfected with pPoll/NP(0)GFP(0) after 2 hrs post-transfection followed by compound addition incubated for 22 hrs by fluorescence microscopic analysis; type: cell-based
HEK293T [3] = experiment: Inhibition of Influenza A virus RNA dependent RNA polymerase activity in HEK293T cells co-transfected with pPoll/NP(0)GFP(0) assessed as reduction on number of GFP positive cells at 10 uM after 2 hrs post-transfection followed by compound addition incubated for 22 hrs by fluorescence microscopic analysis; type: cell-based
[4] = Cytotoxicity in dog MDCK cells assessed as reduction in cell viability incubated for 48 hrs by crystal violet staining based assay; type: toxicity, Canis lupus familiaris
Influenza A virus [5] = experiment: Antiviral activity against Influenza A virus A/WSN/33(H1N1) strain infected in MDCK cells assessed as reduction in viral infection incubated for 48 hrs by crystal violet staining based assay; type: functional, organism-based
Influenza A virus [6] = experiment: Antiviral activity against Influenza A virus A/California/7/2009(H1N1) strain infected in MDCK cells assessed as reduction in viral infection incubated for 48 hrs by crystal violet staining based assay; type: functional, organism-based
Influenza A virus [7] = experiment: Antiviral activity against Influenza A virus B/Lee/40(type B) strain infected in MDCK cells assessed as reduction in viral infection incubated for 48 hrs by crystal violet staining based assay; type: functional, organism-based
Influenza A virus [8] = experiment: Antiviral activity against Influenza A virus A/Aichi/8/68(H3N2) strain infected in MDCK cells assessed as reduction in viral infection incubated for 48 hrs by crystal violet staining based assay; type: functional, organism-based
HEK293T [9] = experiment: Inhibition of Influenza A virus RNA dependent RNA polymerase activity in HEK293T cells co-transfected with pPoll/NP(0)GFP(0) assessed as reduction on number of GFP positive cells at 10 nM after 2 hrs post-transfection followed by compound addition incubated for 22 hrs by fluorescence microscopic analysis; type: cell-based
Influenza A virus [10] = experiment: Antiviral activity against Influenza A virus A/Virginia/ATCC2/2009(H1N1) strain infected in MDCK cells assessed as reduction in viral infection incubated for 48 hrs by crystal violet staining based assay; type: functional, organism-based
Influenza A virus [11] = experiment: Antiviral activity against Influenza A virus A/Puerto Rico/8/34(H1N1) strain infected in MDCK cells assessed as reduction in viral infection incubated for 48 hrs by crystal violet staining based assay; type: functional, organism-based

SMILES	CC50 at 48 h [4] [µM]	EC50 (Influenza A virus [5]) [µM]	further results
CCc1ccc2[nH]c(=O)c(CN(Cc3ccc(C(C)(C)C)cc3)[C@@H](C)c3ccc(OC)cc3)cc2c1	> 5	0.103	inhibition (HEK293T [1]): Dose-Dependent Effect; inhibition (HEK293T [2]): Active; inhibition (HEK293T [3]): Active
CCC(C)(C)n1nnnc1C(c1cc2cccc(C)c2[nH]c1=O)N(Cc1ccccc1)Cc1ccc(F)cc1 (stereo unspecified)	> 83	0.57	inhibition (HEK293T [1]): Dose-Dependent Effect
O=C1c2c(O)c(=O)ccn2N([C@@H]2c3ccccc3SCc3c2ccc(F)c3F)[C@@H]2COCCN12 [BALOXAVIR]	–	0.003	EC50 (Influenza A virus [6]): 0.004 µM; EC50 (Influenza A virus [7]): 0.17 µM; EC50 (Influenza A virus [8]): 0.004 µM; inhibition (HEK293T [9]): Active; EC50 (Influenza A virus [10]): 0.006 µM; EC50 (Influenza A virus [11]): 0.007 µM
NC(=O)c1nc(F)cnc1O [FAVIPIRAVIR]	–	1.9	EC50 (Influenza A virus [6]): 2.9 µM
CCOC(=O)C1=C[C@@H](OC(CC)CC)[C@H](NC(C)=O)[C@@H](N)C1 [OSELTAMIVIR PHOSPHATE]	–	2.01	inhibition (HEK293T [1]): inactive; EC50 (Influenza A virus [6]): 4.62 µM; EC50 (Influenza A virus [8]): 2.25 µM; EC50 (Influenza A virus [10]): 18.5 µM; EC50 (Influenza A virus [11]): 11.6 µM
COc1ccc(CN(Cc2ccc(C(C)(C)C)cc2)Cc2cc3cc(C)ccc3[nH]c2=O)cc1	> 10	0.33	–
Cc1ccc2cc(CN(Cc3ccc(C(C)C)cc3)Cc3ccccc3F)c(=O)[nH]c2c1	> 33	1.8	–
COc1ccc(C(C)N(Cc2ccc(C(C)(C)C)cc2)Cc2cc3cc(Br)ccc3[nH]c2=O)cc1Cl (stereo unspecified)	> 10	0.53	–
COc1ccc2[nH]c(=O)c(CN(Cc3ccc(C(C)(C)C)cc3)C(C)c3ccc(OC)c(Cl)c3)cc2c1 (stereo unspecified)	> 10	0.061	EC50 (Influenza A virus [6]): 0.23 µM; inhibition (HEK293T [2]): Active; inhibition (HEK293T [3]): Active; EC50 (Influenza A virus [7]): 0.079 µM; EC50 (Influenza A virus [8]): 0.085 µM; EC50 (Influenza A virus [10]): 0.077 µM; EC50 (Influenza A virus [11]): 0.072 µM
CCCOc1ccc(CN(Cc2ccc(C(C)(C)C)cc2)Cc2cc3cc(C)ccc3[nH]c2=O)cc1	> 5	3	–
C[C@@H](c1ccc(OC(F)(F)F)cc1)N(Cc1ccc(C(F)(F)F)c(Cl)c1)Cc1cc2cc(C3CC3)ccc2[nH]c1=O	7.9	0.12	–
Cc1ccc2[nH]c(=O)c(CN(Cc3ccc(N(C)C)cc3)Cc3ccc(C(C)(C)C)cc3)cc2c1	> 5	0.46	–
Cc1cccc2cc(C(C#N)N(Cc3ccccc3)Cc3ccc(C(C)C)cc3)c(=O)[nH]c12 (stereo unspecified)	> 83	16	–
CCc1ccc2[nH]c(=O)c(CN(Cc3ccc(C(C)(C)C)cc3)C(C)c3ccc(OC)c(Cl)c3)cc2c1 (stereo unspecified)	> 10	0.17	–
Cc1ccc2cc(CN(Cc3ccc(C(C)(C)C)cc3)Cc3cc(F)cc(F)c3)c(=O)[nH]c2c1	> 33	3.5	–
CCc1ccc2[nH]c(=O)c(CN(Cc3ccc(O)cc3)Cc3ccc(C(C)(C)C)cc3)cc2c1	> 10	1.8	–
COc1ccc(C(C)N(Cc2ccc(C(C)(C)C)cc2)Cc2cc3cc(C4CC4)ccc3[nH]c2=O)cc1Cl (stereo unspecified)	> 10	0.069	–
Cc1ccc2[nH]c(=O)c(CN(Cc3ccc(OCC(=O)OC(C)(C)C)cc3)Cc3ccc(C(C)(C)C)cc3)cc2c1	> 10	1.8	–
Cc1ccc2cc(CN(Cc3ccc(F)cc3)Cc3ccc(C(C)C)cc3)c(=O)[nH]c2c1	> 33	2	–
Cc1ccc2[nH]c(=O)c(CN(Cc3ccc(C(C)(C)C)cc3)C(C)c3ccc(F)cc3)cc2c1 (stereo unspecified)	> 33	1.3	–
CC(C)c1ccc2[nH]c(=O)c(CN(Cc3ccc(C(C)(C)C)cc3)C(C)c3ccc(F)cc3)cc2c1 (stereo unspecified)	13.1	5.4	–

SMILES	CC50 at 48 h [4] [µM]	EC50 (Influenza A virus [5]) [µM]	further results
COc1ccc([C@H](C)N(Cc2ccc(C(C)(C)C)cc2)Cc2cc3cc(OC)ccc3[nH]c2=O)cc1	4.1	0.12	–
Cc1ccc2cc(C(C#N)N(Cc3ccc(F)cc3)Cc3ccc(C(C)C)cc3)c(=O)[nH]c2c1 (stereo unspecified)	21	54	–
Cc1ccc2[nH]c(=O)c(CN(Cc3ccc(SC(F)F)cc3)Cc3ccc(C(C)(C)C)cc3)cc2c1	> 5	0.65	–
Cc1ccc2[nH]c(=O)c(CN(Cc3ccc(OCC(=O)O)cc3)Cc3ccc(C(C)(C)C)cc3)cc2c1	> 10	2.7	–
CCc1ccc2[nH]c(=O)c(CN(Cc3ccc(C(C)(C)C)cc3)C(C)c3ccc(OC)cc3)cc2c1 (stereo unspecified)	> 5	0.22	–
Cc1ccc2cc(C(C#N)N(Cc3ccccc3)Cc3ccc(C(C)C)cc3)c(=O)[nH]c2c1 (stereo unspecified)	> 83	5.6	–
Cc1ccc2cc(CN(Cc3ccc(C(C)C)cc3)Cc3cccc(F)c3)c(=O)[nH]c2c1	> 33	2.1	–
CCc1ccc2[nH]c(=O)c(CN(Cc3cccc(F)c3)Cc3ccc4ccccc4c3)cc2c1	> 5	4.1	–
C[C@@H](c1ccc(OC(F)(F)F)cc1)N(Cc1ccc(C(C)(C)C)cc1)Cc1cc2cc(C(F)(F)F)ccc2[nH]c1=O	> 10	0.26	–
CCc1ccc2[nH]c(=O)c(CN(Cc3ccc(OC(F)F)cc3)Cc3ccc(C(C)(C)C)cc3)cc2c1	> 5	0.46	–
C[C@@H](c1ccc(OC(F)(F)F)cc1)N(Cc1ccc(C(C)(C)C)cc1)Cc1cc2cc(C3CC3)ccc2[nH]c1=O	> 10	0.077	EC50 (Influenza A virus [6]): 0.27 µM; inhibition (HEK293T [2]): Active; inhibition (HEK293T [3]): Active; EC50 (Influenza A virus [7]): 0.23 µM; EC50 (Influenza A virus [8]): 0.072 µM; EC50 (Influenza A virus [10]): 0.064 µM; EC50 (Influenza A virus [11]): 0.067 µM
Cc1ccc2cc(CN(Cc3ccc(C(C)(C)C)cc3)CC3CCCCC3)c(=O)[nH]c2c1	> 10	1.9	–
CC(c1ccc(N(C)C)c(Cl)c1)N(Cc1ccc(C(C)(C)C)cc1)Cc1cc2cc(C3CC3)ccc2[nH]c1=O (stereo unspecified)	> 10	0.09	–
Cc1ccc2[nH]c(=O)c(CN(Cc3ccc(OC(C)C)cc3)Cc3ccc(C(C)(C)C)cc3)cc2c1	> 5	1.5	–
COc1ccc([C@H](C)N(Cc2ccc(C(C)(C)C)cc2)Cc2cc3cc(C4CC4)ccc3[nH]c2=O)cc1	> 10	0.16	–
CC(c1ccc(OC(F)(F)F)c(Cl)c1)N(Cc1ccc(C(C)(C)C)cc1)Cc1cc2cc(C3CC3)ccc2[nH]c1=O (stereo unspecified)	> 10	1.2	–
Cc1ccc2[nH]c(=O)c(CN(Cc3ccc(OC(F)F)cc3)Cc3ccc(C(C)(C)C)cc3)cc2c1	> 5	0.27	–
CCc1ccc2[nH]c(=O)c(CN(Cc3ccc(F)cc3)Cc3ccc4ccccc4c3)cc2c1	> 5	2.1	–
COCOc1ccc(CN(Cc2ccc(C(C)(C)C)cc2)Cc2cc3cc(C)ccc3[nH]c2=O)cc1	6.4	0.38	–
CN(C)c1ccc(CN(Cc2ccc(C(C)(C)C)cc2)Cc2cc3cc(Cl)ccc3[nH]c2=O)cc1	> 10	1.5	–
CCCc1ccc2[nH]c(=O)c(CN(Cc3ccc(F)cc3)Cc3ccc(C(C)(C)C)cc3)cc2c1	8.4	28	–
